Conditions: in vivo, iv, 20 mg/kg
Method: Where F is the absolute bioavailability, AUCLUNG and DLUNG are the area under the curve and dose, respectively, for drug administration through the lung. AUCIV and DIV are areas under the curve and dose, respectively, of drug administered intravenously. From internal PK Studies performed, it is known that F equals 0.54 for capreomycin particles administered through the lungs, AUCIV equals 48.47 μgh/ml, and DIV equals 20 mg/kg.

AUCIV: 48.47 μgh/ml
Substance: capreomycin

Reference: patent publication US8205612B2, “Dry powder aerosol generator” (The University of North Carolina at Chapel Hill, NC, priority 2007, dated 2012)
